Here are results for 41 molecules from ChEMBL document CHEMBL4411309, “Discovery of 2-substituted-N-(3-(3,4-dihydroisoquinolin-2(1H)-yl)-2-hydroxypropyl)-1,2,3,4-tetrahydroisoquinoline-6-carboxamide as potent and selective protein arginine methyltransferases 5 inhibitors: Design, synthesis and biological evaluation” (Eur J Med Chem, 2019).

Test [1] deals with PRMT5/MEP50 complex (Homo sapiens, UniProt O14744). As to the kind of experiment: Inhibition of recombinant human N-terminal FLAG-tagged PRMT5 (2 to end residues)/human N-terminal His-tagged MEP50 (2 to end residues) expressed in HEK293F cells using H4 peptide as substrate preincubated for 15 mins followed by substrate and [3H]SAM addition and measured after 1 hr by scintillation counting method.
Chain of PRMT5/MEP50 complex (O14744 whole entry): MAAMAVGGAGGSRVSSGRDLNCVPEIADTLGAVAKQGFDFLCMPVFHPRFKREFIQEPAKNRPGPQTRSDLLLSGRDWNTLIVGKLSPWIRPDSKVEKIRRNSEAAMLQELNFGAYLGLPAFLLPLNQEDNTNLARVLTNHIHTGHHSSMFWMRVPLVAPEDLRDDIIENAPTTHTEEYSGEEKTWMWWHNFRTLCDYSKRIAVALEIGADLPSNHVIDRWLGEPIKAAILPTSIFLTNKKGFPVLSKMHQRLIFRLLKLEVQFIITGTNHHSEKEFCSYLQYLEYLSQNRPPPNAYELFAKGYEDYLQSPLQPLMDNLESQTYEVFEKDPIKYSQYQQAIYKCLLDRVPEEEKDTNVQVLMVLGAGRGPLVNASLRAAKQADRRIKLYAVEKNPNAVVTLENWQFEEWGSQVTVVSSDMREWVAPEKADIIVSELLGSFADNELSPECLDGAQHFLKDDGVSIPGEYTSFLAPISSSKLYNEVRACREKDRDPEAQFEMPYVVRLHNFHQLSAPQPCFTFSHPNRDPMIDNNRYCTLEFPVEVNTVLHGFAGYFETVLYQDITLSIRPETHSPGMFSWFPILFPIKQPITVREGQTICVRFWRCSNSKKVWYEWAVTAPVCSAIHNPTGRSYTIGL
Chain of PRMT5/MEP50 complex (Q9BQA1 whole entry, further chain): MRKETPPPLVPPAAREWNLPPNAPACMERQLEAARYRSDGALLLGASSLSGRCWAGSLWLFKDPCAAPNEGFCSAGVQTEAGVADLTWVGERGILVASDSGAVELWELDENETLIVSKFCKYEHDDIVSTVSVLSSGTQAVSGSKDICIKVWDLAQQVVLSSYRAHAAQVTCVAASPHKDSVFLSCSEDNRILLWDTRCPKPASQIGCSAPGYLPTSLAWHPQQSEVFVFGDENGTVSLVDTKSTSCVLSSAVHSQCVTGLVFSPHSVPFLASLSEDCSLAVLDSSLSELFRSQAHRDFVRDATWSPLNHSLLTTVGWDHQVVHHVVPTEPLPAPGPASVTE

The test system of test [2] is MV4-11. Put plainly: Antiproliferative activity against human MV4-11 cells supplemented with fresh medium containing compound every 4 days measured on day 8 by Celltiter-glo luminescent cell viability assay. The test is classed as functional. A general note: Cellular ATP, detected with luciferase, serves as a proxy for viable cell number.
For test [3], the system named is MV4-11. Put plainly: Antiproliferative activity against human MV4-11 cells supplemented with fresh medium containing compound every 4 days measured on day 12 by Celltiter-glo luminescent cell viability assay. The test is classed as functional.

One may read the IC50 as the concentration at which inhibition is half-maximal. The term GI50 denotes the concentration at which growth is held to half of that of the control. In the case of `Cc1ccc(C(=O)N2CCc3sc(C(=O)NCC(O)CN4CCc5ccccc5C4)cc3C2)cc1` (stereo not drawn), the IC50 in test [1] is 0.0325 µM. Also, the GI50 was 0.135 µM in test [2] and 0.11 µM in test [3].

For `COc1ccc(C(=O)N2CCc3sc(C(=O)NCC(O)CN4CCc5ccccc5C4)cc3C2)cc1` (stereo not drawn), the IC50 in test [1] came out at 0.02 µM. Also, the values for the GI50 in test [2] and in test [3] were 0.216 µM and 0.0856 µM, respectively.

Regarding `CN(C)c1ccc(C(=O)N2CCc3cc(C(=O)NC[C@H](O)CN4CCc5ccccc5C4)ccc3C2)cc1`, the IC50 in test [1] stood at 0.011 µM. The figures for the GI50 in test [2] and in test [3] were 0.075 µM and 0.053 µM, respectively.

As for `CN1CCc2oc(C(=O)NCC(O)CN3CCc4ccccc4C3)cc2C1` (stereo not drawn), the IC50 in test [1] was 1.9 µM.

Take `O=C(NCC(O)CN1CCc2ccccc2C1)c1cc2c(s1)CCN(C1CCCCC1)C2` (stereo not drawn): the IC50 in test [1] is 0.13 µM.

With `O=C(NC[C@H](O)CN1CCc2ccccc2C1)c1cc(NC2COC2)ncn1`, the concentration for 50% growth inhibition (GI50) amounted to 0.212 µM in test [2] and 0.106 µM in test [3].

For `CC(C)(C)c1ccc(C(=O)N2CCc3sc(C(=O)NCC(O)CN4CCc5ccccc5C4)cc3C2)cc1` (stereo not drawn), in test [1], the concentration for half-maximal inhibition (IC50) worked out at 0.019 µM. The values for the GI50 in test [2] and in test [3] were 0.415 µM and 0.186 µM, respectively.

On to `CN(C)c1ccc(C(=O)N2CCc3sc(C(=O)NCC(O)CN4CCc5ccccc5C4)cc3C2)cc1` (stereo not drawn), for which the IC50 in test [1] stood at 0.023 µM. Also, the GI50 was 0.197 µM in test [2] and 0.143 µM in test [3].

Take `CN1CCc2sc(C(=O)NCC(O)CN3CCc4ccccc4C3)cc2C1` (stereo not drawn): the IC50 in test [1] was 0.475 µM.

For the molecule `O=C(NCC(O)CN1CCc2ccccc2C1)c1cc2c(s1)CCN(C(=O)Cc1ccccc1)C2` (stereo not drawn), the IC50 in test [1] was found to be 0.05 µM. Besides, the GI50 in test [2] was 0.256 µM; in test [3], 0.147 µM.

For the molecule `O=C(NCC(O)CN1CCc2ccccc2C1)c1cc2c(s1)CCN(C(=O)c1ccc(F)cc1)C2` (stereo not drawn), the IC50 in test [1] amounted to 0.03 µM. Moreover, the figures for the GI50 in test [2] and in test [3] were 0.199 µM and 0.126 µM, respectively.

For `COc1ccc(C(=O)N2CCc3cc(C(=O)NCC(O)CN4CCc5ccccc5C4)ccc3C2)cc1` (stereo not drawn), the IC50 in test [1] is 0.023 µM. Further, the results for the GI50 in test [2] and in test [3] were 0.035 µM and 0.032 µM, respectively.

For `COc1ccc(C(=O)N2CCc3cc(C(=O)NC[C@H](O)CN4CCc5ccccc5C4)ccc3C2)cc1`, in test [1], the IC50 is 0.013 µM. Further, the GI50 was 0.037 µM in test [2] and 0.023 µM in test [3].

On to `CC(=O)c1ccc(C(=O)N2CCc3sc(C(=O)NCC(O)CN4CCc5ccccc5C4)cc3C2)cc1` (stereo not drawn), for which the IC50 in test [1] worked out at 0.019 µM. For the same molecule, the GI50 in test [2] came out at 0.193 µM; in test [3], 0.089 µM.

Turning to `O=C(NCC(O)CN1CCc2ccccc2C1)c1cc2c(s1)CCN(S(=O)(=O)c1ccccc1)C2` (stereo not drawn), in test [1], the IC50 was found to be 0.091 µM. Further, the values for the GI50 in test [2] and in test [3] were 0.375 µM and 0.209 µM, respectively.

Regarding `O=C(NCC(O)CN1CCc2ccccc2C1)c1cc2c(s1)CCN(C(=O)Oc1ccccc1)C2` (stereo not drawn), the IC50 in test [1] is 0.05 µM.

As to `O=C(NCC(O)CN1CCc2ccccc2C1)c1cc2c(s1)CCN(C1CCOCC1)C2` (stereo not drawn), in test [1], the IC50 turned out to be 0.46 µM.

As for `O=C(NCC(O)CN1CCc2ccccc2C1)c1cc2c(s1)CCN(C(=O)c1ccncc1)C2` (stereo not drawn), in test [1], the IC50 was 0.045 µM. Moreover, the GI50 came out at 0.253 µM in test [2] and 0.11 µM in test [3].

With `O=C(NCC(O)CN1CCc2ccccc2C1)c1cc2c(s1)CCN(C(=O)c1ccccc1)C2` (stereo not drawn), in test [1], the IC50 was determined as 0.039 µM. Besides, the values for the GI50 in test [2] and in test [3] were 0.184 µM and 0.154 µM, respectively.

For `O=C(NCC(O)CN1CCc2ccccc2C1)c1cc2c(s1)CCN(C(=O)c1ccc([N+](=O)[O-])cc1)C2` (stereo not drawn), the IC50 in test [1] came to 0.019 µM. Also, the GI50 in test [2] amounted to 0.201 µM; in test [3] it was 0.141 µM.

Turning to `CCCN1CCc2sc(C(=O)NCC(O)CN3CCc4ccccc4C3)cc2C1` (stereo not drawn), the IC50 in test [1] came to 1.1 µM.

For the molecule `O=C(NCC(O)CN1CCc2ccccc2C1)c1cc2c(s1)CCN(C(=O)c1ccco1)C2` (stereo not drawn), the IC50 in test [1] is 0.025 µM. Further, the GI50 in test [2] amounted to 0.239 µM; in test [3], 0.16 µM.

`CN(C)c1ccc(C(=O)N2CCc3ccc(C(=O)NCC(O)CN4CCc5ccccc5C4)cc3C2)cc1` (stereo not drawn): the IC50 in test [1] was 0.04 µM.

For the molecule `N#Cc1ccc(C(=O)N2CCc3sc(C(=O)NCC(O)CN4CCc5ccccc5C4)cc3C2)cc1` (stereo not drawn), the IC50 in test [1] was 0.025 µM. Moreover, the values for the GI50 in test [2] and in test [3] were 0.258 µM and 0.135 µM, respectively.

For `O=C(NCC(O)CN1CCc2ccccc2C1)c1cc2c(s1)CCN(C(=O)c1ccc(Cl)cc1)C2` (stereo not drawn), the IC50 in test [1] turned out to be 0.023 µM. The figures for the GI50 in test [2] and in test [3] were 0.147 µM and 0.162 µM, respectively.

As to `O=C(NCC(O)CN1CCc2ccccc2C1)c1ccc2c(c1)CCN(C(=O)c1ccc(Br)cc1)C2` (stereo not drawn), the IC50 in test [1] came to 0.011 µM. In addition, the GI50 in test [2] is 0.045 µM; in test [3] it was 0.034 µM.

As for `O=C(NCC(O)CN1CCc2ccccc2C1)c1cc2c(s1)CCN(C(=O)CCc1ccccc1)C2` (stereo not drawn), the IC50 in test [1] is 0.047 µM. In addition, the results for the GI50 in test [2] and in test [3] were 0.304 µM and 0.185 µM, respectively.

As for `Cc1c(C(=O)NCC(O)CN2CCc3ccccc3C2)sc2c1CN(C(=O)c1ccc(N(C)C)cc1)CC2` (stereo not drawn), in test [1], the IC50 came out at 0.023 µM. Moreover, the GI50 is 0.169 µM in test [2] and 0.101 µM in test [3].

With `O=C(NCC(O)CN1CCc2ccccc2C1)c1cc2c(s1)CCN(C(=O)c1ccc(Br)cc1)C2` (stereo not drawn), in test [1], the IC50 turned out to be 0.018 µM. Moreover, the values for the GI50 in test [2] and in test [3] were 0.181 µM and 0.066 µM, respectively.

Take `O=C(NCC(O)CN1CCc2ccccc2C1)c1cc2c(s1)CCN(c1ccccc1)C2` (stereo not drawn): the IC50 in test [1] is 0.26 µM.

As to `CN1CCc2sc(C(=O)NCC(O)CN3CCc4ccccc4C3)nc2C1` (stereo not drawn), the IC50 in test [1] was determined as 1.2 µM.

`CN(C)c1ccc(C(=O)N2Cc3ccc(C(=O)NCC(O)CN4CCc5ccccc5C4)cc3C2)cc1` (stereo not drawn): the IC50 in test [1] was 0.017 µM. Further, the GI50 in test [2] was determined as 0.128 µM; in test [3], 0.092 µM.

For `O=C(NC[C@@H](O)CN1CCc2ccccc2C1)c1ccc2c(c1)CCN(C(=O)c1ccc(Br)cc1)C2`, the IC50 in test [1] came out at 0.059 µM. The figures for the GI50 in test [2] and in test [3] were 0.213 µM and 0.187 µM, respectively.

Consider `CN1CCc2[nH]c(C(=O)NCC(O)CN3CCc4ccccc4C3)cc2C1` (stereo not drawn), for which the IC50 in test [1] amounted to 1.9 µM.

In the case of `O=C(NCC(O)CN1CCc2ccccc2C1)c1cc2c(s1)CCN(C(=O)c1cccc(F)c1)C2` (stereo not drawn), the IC50 in test [1] came to 0.0315 µM. In addition, the GI50 in test [2] is 0.314 µM; in test [3], 0.166 µM.

For the molecule `O=C(NCC(O)CN1CCc2ccccc2C1)c1cc2c(s1)CCN(C(=O)c1cccs1)C2` (stereo not drawn), in test [1], the IC50 turned out to be 0.037 µM. Further, the figures for the GI50 in test [2] and in test [3] were 0.324 µM and 0.168 µM, respectively.

For `CN(C)c1ccc(C(=O)N2CCc3cc(C(=O)NCC(O)CN4CCc5ccccc5C4)ccc3C2)cc1` (stereo not drawn), in test [1], the IC50 was 0.017 µM. Further, the GI50 in test [2] came out at 0.07 µM; in test [3], 0.036 µM.

For `O=C(NCC(O)CN1CCc2ccccc2C1)c1cc2c(s1)CCN(Cc1ccccc1)C2` (stereo not drawn), the IC50 in test [1] turned out to be 0.24 µM.

For `O=C(NCC(O)CN1CCc2ccccc2C1)c1cc2c(s1)CCN(C(=O)c1ccc(C(F)(F)F)cc1)C2` (stereo not drawn), the IC50 in test [1] is 0.049 µM. Besides, the GI50 worked out at 0.204 µM in test [2] and 0.134 µM in test [3].

In the case of `COc1ccc(C(=O)N2CCc3cc(C(=O)NC[C@@H](O)CN4CCc5ccccc5C4)ccc3C2)cc1`, the IC50 in test [1] was 0.033 µM. For the same molecule, the results for the GI50 in test [2] and in test [3] were 0.333 µM and 0.213 µM, respectively.

For `O=C(NCC(O)CN1CCc2ccccc2C1)c1cc2c(s1)CCN(C(=O)c1ccc(N3CCC3)cc1)C2` (stereo not drawn), the IC50 in test [1] worked out at 0.044 µM.
